Assay results published in patent US11700870B2, “Use of tri- and tetra-saccharides as taste modulators” (Tate & Lyle Solutions USA LLC, priority 2016, dated 2023).

Assays:
panelists [1] = assay: Sweetness rating against sucrose SEV reference solutions; assay type: in vivo, human; conditions: for sweetness equivalence, as % solution of sucrose: 10% solution of the saccharide
Experimental: (§1) Additional sensory testing was carried out in accordance with the following procedure. The general framework for the sensory testing was to compare various concentrations of steviol glycoside (rebaudioside A) ranging from 100 ppm to as high as 2000 ppm at intervals spaced to characterize an adequate dose response. Due to known carryover effects, products were served as no more than two products per day, generally served as one of the following pairs: 100 ppm/250 ppm; 500 ppm/1000 ppm; 750 ppm/1500 ppm; 1000 ppm/2000 ppm. The products were not served counterbalanced, but were instead served in ascending concentration to allow for cleaner reads on both data points. The solutions were served in 2 ounce soufflé cups coded with 3-digit codes at room temperature. Store-purchased distilled water and unsalted crackers were available for the panelists to clear their palates before and during testing. Each daily study targeted 30 persons, though at times as fewer panelists were tested due to exclusionary requirements (i.e., those who are lactating, pregnant, on medication, etc., begin the study but then drop out during the study).
The study was designed as a rating study using an anchored scale of references of sucrose solutions in neutral pH water. In this study, panelists received a series of reference samples labeled and identified with their SEV equivalence. The range exceeded the expected sweetness of the test sample and panelists rated the sweetness using a 15-pt maximum that exceeds the expected sweetness of the test sample.
Because one cannot predict the sensitivities of all individuals effectively prior to testing, a broader range of references was used. Specifically, SEV references were as follows (the percentages stated are in weight %):
(§2) Panelists first were asked to familiarize themselves with the intensity of each reference solution and its corresponding SEV. Next, they waited 30 sec and cleansed their palate with water and a cracker. Then panelists were asked to taste the test sample (identified by a random 3-digit code). Then they were instructed to drag a marker on a line scale to match the sweetness of their test samples relative to the references noted above, with the scale ranging from 0 to 15. The value they selected was shown above the line scale so panelists were aware of what values they were indicating. Once this was complete, inquiries related to the liking of the test sample, the similarity of the taste of the test sample to sugar, the intensity of any off flavors, and the identity of any off flavors were asked.

panelists [2] = assay: Off flavor intensity rating across the rebaudioside A dose response; assay type: in vivo, human
Experimental: as §1
as §2, with “asked. […]” for “asked.”

panelists [3] = assay: Comparative bitterness of 1000 ppm rebaudioside A 97 solutions, three panelists; assay type: in vivo, human; conditions: for masking the bitterness of rebaudioside A 97: conclusion from the panel, 10% with 1000 ppm rebaudioside A 97
Experimental: Three aqueous solutions of 1000 ppm rebaudioside A 97 (rebaudioside A having a purity of 97%) were prepared with 10% maltotriose, 2.5% sucrose, or no additional component. The sweetness of a 10% maltotriose solution is approximately equal to a 2.5% sucrose solution. Three panelists were asked to assess the samples for comparative bitterness and were instructed to rinse with water between samples in order to mute any carry-over effects. […] One panelist found the sucrose-containing solution to be the most bitter. […] The panelist that reported the sucrose-containing solution to be less bitter than the maltotriose containing solution, self-identified as an individual not particularly sensitive to the bitterness of rebaudioside A 97. Therefore, the bitterness masking effect of maltotriose may be more plainly observed in those more sensitive to the bitterness of rebaudioside A 97.
Three aqueous solutions of 1000 ppm rebaudioside A 97 were prepared with 10% maltotetraose-enriched syrup (containing 60% maltotetraose on a dry weight basis with other carbohydrates including maltotriose, maltose and glucose), 2.5% sucrose, or no additional component. As a note, the sweetness of a 10% maltotetraose solution is roughly equal to a 2.5% sucrose solution. Three panelists were asked to assess the samples for comparative bitterness and were instructed to rinse with water between samples in order to mute any carry-over effects. […] Therefore, the bitterness masking effect of maltotetraose may be more plainly observed in those sensitive to the bitterness of rebaudioside A 97.

[4] = as compared to sucrose; cited from earlier work
[5] = on a weight basis; cited from earlier work
human sense of taste = assay: Taste threshold concentration in aqueous solution; assay type: in vivo; conditions: neutral aqueous solution containing no other ingredients
Excerpt: As used herein, the term “taste threshold concentration associated with the tri-/tetra-saccharide(s)” means the minimum concentration at which a person can still taste the tri-/tetra-saccharide(s) by the human sense of taste, in particular in an aqueous solution containing no ingredient other than water and the tri-/tetra-saccharide(s). This taste threshold concentration may vary somewhat from person to person. For example, melezitose has a taste threshold concentration of about 2.5% by weight in a neutral aqueous solution containing no other ingredients.

[6] = dissolves in 100 g water at 21° C.; cited from earlier work
[7] = recent studies, Food Chemistry 132 (2012) 1951-1958; cited from earlier work
S. mutans = conditions: recent studies, Food Chemistry 132 (2012) 1951-1958; cited from earlier work

OC[C@H]1O[C@@](CO)(O[C@H]2O[C@H](CO)[C@@H](O)[C@H](O)[C@H]2O)[C@@H](O)[C@@H]1O [sucrose, reference compound]
increase of sweet taste perception of the Reb A dose response curve (panelists [1]; 2.5% solution of sucrose, FIG. 1): about 2.5 sweetness units
reduction of off flavors of Reb A (panelists [2]; 2.5% solution of sucrose, FIG. 4): reduced somewhat
comparative bitterness versus neat rebaudioside A solution (panelists [3]; 1000 ppm rebaudioside A 97 with 2.5% sucrose, two of three panelists (Example 3)): equal in bitterness to the neat rebaudioside A solution

OC[C@H]1O[C@H](O[C@H]2[C@H](O)[C@@H](O)[C@@H](O[C@H]3[C@H](O)[C@@H](O)[C@@H](O[C@H]4[C@H](O)[C@@H](O)C(O)O[C@@H]4CO)O[C@@H]3CO)O[C@@H]2CO)[C@H](O)[C@@H](O)[C@@H]1O (some centres unmarked) [maltotetraose]
sweetness equivalence, as % solution of sucrose (panelists [1]): ~2.5%
masking the bitterness of rebaudioside A 97 (panelists [3]): effective

OC[C@H]1O[C@H](OC[C@H]2O[C@H](OC[C@H]3O[C@H](O[C@]4(CO)O[C@H](CO)[C@@H](O)[C@@H]4O)[C@H](O)[C@@H](O)[C@@H]3O)[C@H](O)[C@@H](O)[C@H]2O)[C@H](O)[C@@H](O)[C@H]1O [Stachyose, stachyose]
degree of digestibility [4]: low
sweetness relative to sucrose [5]: approximately 28%

maltotriose
sweetness equivalence, as % solution of sucrose (panelists [1]): ~2.5%
comparative bitterness versus rebaudioside A control (panelists [3]; 1000 ppm rebaudioside A 97 in water with 10% test saccharide): less bitter than the rebaudioside A control
panelists who found the sample the least bitter of the three samples (panelists [3]; 1000 ppm rebaudioside A 97 with 10% test saccharide, versus 2.5% sucrose and no additional component, three panelists): Two of the three
panelists who found the sample less bitter than the rebaudioside A control (panelists [3]; 1000 ppm rebaudioside A 97 with 10% test saccharide, three panelists): All three
masking the bitterness of rebaudioside A 97 (panelists [3]): effective

OC[C@H]1O[C@@](CO)(O[C@H]2O[C@H](CO)[C@@H](O)[C@H](O)[C@H]2O)[C@@H](O[C@H]2O[C@H](CO)[C@@H](O)[C@H](O)[C@H]2O)[C@@H]1O [melezitose, α-D-glucose (1-3)-β-D-fructose (2-1)-α-D-glucose]
sweetness equivalence, as % solution of sugar (sucrose) (panelists [1]; 5% solution of the saccharide): ~1%
sweetness equivalence, as % solution of sucrose (panelists [1]): 2.5%
reduction of off-tastes of Reb A (panelists [2]; 5% solution of melezitose (subsweet), FIG. 5): clear impact on the reduction of off-tastes
reduction of off-tastes of Reb A (panelists [2]; 10% melezitose solution, as sweet as 2.5% sucrose, FIG. 6): dramatic
taste threshold concentration (human sense of taste): about 2.5 % by weight
solubility in water [6]: 26.8 g
digestibility by in vitro assay [7]: not to be digestible
utilization by S. mutans in dental caries assay (S. mutans): not utilized
